Values of other authors in paper PMC3531425, “Low Resolution Solution Structure of HAMLET and the Importance of Its Alpha-Domains in Tumoricidal Activity” (PLoS ONE, 2012).

Tested on: tumor cells
Details: molecular range where the complex kills tumor cells; ref [10], [17]; cited from earlier work
Text: The structural basis for HAMLET's tumoricidal activity is not fully understood. […] Since native α-lactalbumin lacks these activities, we hypothesized that the partially unfolded and ... || Recent Far-UV CD spectroscopy studies have shown that the secondary structural features in HAMLET are similar to those in α-lactalbumin [10], which include an alpha1 and alpha2 domain, consisting of the amino acid residues K1-Q39 and L81-L123, respectively, as well as the beta domain, formed by the residues A40-F80 (Fig. 3A–B). […] As described above the alpha2 domain forms a part of the globular domain (residues L81 to W104) as well as the C-terminal tail with t ...

CCCCCCCC/C=C\CCCCCCCC(=O)O [oleic acid]
Toxicity of oleic acid alone: not toxic
